{
  "source": "patent US20240279202A1",
  "about": "(NURIX THERAPEUTICS, INC., priority 2021, published 2024)",
  "molecular_target": "T1, ITK (Homo sapiens, UniProt Q08881)",
  "T1 sequence (Q08881 1-620)": "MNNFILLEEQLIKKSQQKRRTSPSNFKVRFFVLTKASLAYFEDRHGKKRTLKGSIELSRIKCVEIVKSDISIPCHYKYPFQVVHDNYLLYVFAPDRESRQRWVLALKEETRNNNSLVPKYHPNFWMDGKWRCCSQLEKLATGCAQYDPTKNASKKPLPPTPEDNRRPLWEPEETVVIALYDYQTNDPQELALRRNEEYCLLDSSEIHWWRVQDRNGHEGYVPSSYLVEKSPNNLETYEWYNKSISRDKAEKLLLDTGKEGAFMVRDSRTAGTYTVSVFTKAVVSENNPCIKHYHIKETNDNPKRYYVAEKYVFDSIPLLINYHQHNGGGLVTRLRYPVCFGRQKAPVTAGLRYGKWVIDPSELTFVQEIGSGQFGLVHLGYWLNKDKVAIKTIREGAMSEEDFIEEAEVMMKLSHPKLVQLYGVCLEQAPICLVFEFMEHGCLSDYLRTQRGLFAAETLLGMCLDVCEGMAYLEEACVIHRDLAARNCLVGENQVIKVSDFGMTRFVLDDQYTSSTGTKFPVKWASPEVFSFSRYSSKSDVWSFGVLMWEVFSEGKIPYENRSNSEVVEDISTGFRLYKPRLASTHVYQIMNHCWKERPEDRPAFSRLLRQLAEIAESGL",
  "test": "ITK degradation HiBiT assay",
  "format": "cell-based",
  "design": "expressed in transfected cells; host or cells: Molt4 (ATCC CRL-1552), monoclonal clone 1C10, engineered to carry the HiBiT tag",
  "settings": "4 hrs; for Dmax: MOLT-4, C-terminal HiBiT-tagged Molt4 cells; for DC50: C-terminal HiBiT-tagged Molt4 cells",
  "protocol": "Itk Degradation Hibit Assay\nCompounds provided herein were assayed in vitro with ITK HiBit cell lines. Compound dilution series (11-point, 5 fold dilutions in DMSO, columns 2-12 with replicate in rows A/B, C/D, E/F, G,H at 2000× the final required concentrations were prepared in 96 well plates (Falcon, cat. no. 353077). Column 1, rows A-H were control DMSO. The 2000× solutions ranged from 2 mM to 1.024 nM (final assay concentration range 1 μM to […]). The 2000× solutions were added to cells in […], for a final DMSO concentration of 0.5% and final assay compound concentration of 1×. For the cells, C-terminal HiBiT-tagged Molt4 cells (ATCC CRL-1552, monoclonal cell line clone 1C10) were plated at 1×10^6 cells/mL, 100 μL/well ([…]) in complete RPMI (10% FBS, 1% L-glutamine). The cells were incubated with compound 10 and compound 17 for 4 hrs at […]/6% CO2.\nFollowing incubation, 100 μL of complete Nano-Glo HiBiT Lytic Detection Reagent (Nano-Glo HiBiT Lytic Buffer with 1:50 Nano-Glo HiBiT Lytic Substrate and 1:100 LgBiT Protein; Promega cat. no. N3040) was added. Cells were further incubated for 10 min at room temperature (RT). Luminescence units (LU) were read on an EnVision plate reader (Perkin Elmer, 0.1 sec per well). Percent ITK remaining per sample was calculated as follows: […]\nUsing Graphpad Prism, % ITK remaining values were plotted as a function of compound concentration. To determine DC50 and Dmax values, resulting curves were fit to the Prism curve-fitting equation “log(inhibitor) vs response—Variable slope (four parameters)” (reported best fit value IC50 used as DC50). ITK was measured with antibody-based MSD (Meso-Scale Discovery) assays shown below.",
  "data": [
    {"smiles": "COc1cc(N2CCC(CN3CCN(C(=O)c4ccc5cc(-c6n[nH]c7c6CCC(C)(C)C7)[nH]c5c4)CC3)CC2)ccc1C1CCC(=O)NC1=O", "note": "(centres unmarked) [Compound 184]", "values": [
      {"measurement": "Dmax", "result": 70, "unit": "%"}
    ]},
    {"smiles": "CN(c1ccc2cc(-c3n[nH]c4c3C[C@@H]3C(F)(F)[C@]3(C)C4)[nH]c2c1)C(=O)[C@H]1C[C@@]2(CCN(c3ccc4c(c3)C(=O)N([C@H]3CCC(=O)NC3=O)C4=O)C2)C1", "note": "(racemic) [Compound 71a, (2r,4r)-N-[2-[(4aS,5aR)-5,5-difluoro-5a-methyl-1H,4H,4aH,6H-cyclopropa[f]indazol-3-yl]-1H-indol-6-yl]-6-[2-[(3RS)-2,6-dioxopiperidin-3-yl]-1,3-dioxoisoindol-5-yl]-N-methyl-6-azaspiro[3.4]octane-2-carboxamide]", "values": [
      {"measurement": "Dmax", "result": 53, "unit": "%"}
    ]},
    {"smiles": "C[C@@]12Cc3[nH]nc(-c4cc5cc(F)c(C(=O)N6CCN(C[C@@H]7CCN(c8ccc(C9CCC(=O)NC9=O)cc8)C7)CC6)cc5[nH]4)c3C[C@@H]1C2(F)F", "note": "(some centres unmarked) [Compound 146]", "values": [
      {"measurement": "Dmax", "result": 73, "unit": "%"}
    ]},
    {"smiles": "C[C@@]12Cc3[nH]nc(C(=O)Nc4cnn([C@@H]5CCN(CC6CCN(c7ccc(C(=O)N[C@H]8CCC(=O)NC8=O)nc7)CC6)C[C@H]5F)c4)c3C[C@@H]1C2(F)F", "note": "[Compound 94, (4aS,5aR)-N-(1-((3R,4R)-1-((1-(6-(((S)-2,6-dioxopiperidin-3-yl)carbamoyl)pyridin-3-yl)piperidin-4-yl)methyl)-3-fluoropiperidin-4-yl)-1H-pyrazol-4-yl)-5,5-difluoro-5a-methyl-1,4,4a,5,5a,6-hexahydrocyclopropa[f]indazole-3-carboxamide]", "values": [
      {"measurement": "DC50", "result": 3.4, "unit": "nM"},
      {"measurement": "Dmax", "result": 83, "unit": "%"}
    ]},
    {"smiles": "C[C@@]12Cc3[nH]nc(C(=O)Nc4ccc(C5CCN(CC6CCN(c7ccc(C8CCC(=O)NC8=O)cn7)CC6)CC5)cc4)c3C[C@@H]1C2(F)F", "note": "(stereo partly drawn) [Compound 109, (4aS,5aR)-N-(4-(1-((1-(5-(2,6-dioxopiperidin-3-yl)pyridin-2-yl)piperidin-4-yl)methyl)piperidin-4-yl)phenyl)-5,5-difluoro-5a-methyl-1,4,4a,5,5a,6-hexahydrocyclopropa[f]indazole-3-carboxamide]", "values": [
      {"measurement": "DC50", "result": 0.73, "unit": "nM"},
      {"measurement": "Dmax", "result": 91, "unit": "%"}
    ]},
    {"smiles": "C[C@@]12Cc3[nH]nc(C(=O)Nc4cnn(C5CCN(CC6CCN(c7ccc([C@H]8CCC(=O)NC8=O)cc7F)CC6)CC5)c4)c3C[C@@H]1C2(F)F", "note": "[Compound 118, (4aS,5aR)-N-(1-{1-[(1-{4-[(3R)-2,6-dioxopiperidin-3-yl]-2-fluorophenyl}piperidin-4-yl)methyl]piperidin-4-yl}-1H-pyrazol-4-yl)-5,5-difluoro-5a-methyl-1H,4H,4aH,5H,5aH,6H-cyclopropa[f]indazole-3-carboxamide]", "values": [
      {"measurement": "DC50", "result": 0.467, "unit": "nM"},
      {"measurement": "Dmax", "result": 77, "unit": "%"}
    ]},
    {"smiles": "C[C@@]12Cc3[nH]nc(C(=O)Nc4cnn([C@@H]5CCN(CC6CCN(c7ccc([C@H]8CCC(=O)NC8=O)cc7)CC6)C[C@H]5F)c4)c3C[C@@H]1C2(F)F", "note": "(single isomer, unassigned) [Compound 96]", "values": [
      {"measurement": "DC50", "result": 1.1, "unit": "nM"},
      {"measurement": "Dmax", "result": 89, "unit": "%"}
    ]},
    {"smiles": "Cn1c(=O)n(C2CCC(=O)NC2=O)c2cccc(N3CCC(C(=O)N4CC(n5cc(NC(=O)c6n[nH]c7c6C[C@@H]6C(F)(F)[C@]6(C)C7)cn5)C4)CC3)c21", "note": "(stereo partly drawn) [Compound 56, (4aS,5aR)-N-(1-(1-(1-(1-(2,6-dioxopiperidin-3-yl)-3-methyl-2-oxo-2,3-dihydro-1H-benzo[d]imidazol-4-yl)piperidine-4-carbonyl)azetidin-3-yl)-1H-pyrazol-4-yl)-5,5-difluoro-5a-methyl-1,4,4a,5,5a,6-hexahydrocyclopropa[f]indazole-3-carboxamide]", "values": [
      {"measurement": "DC50", "result": 0.013, "unit": "nM"},
      {"measurement": "Dmax", "result": 64, "unit": "%"}
    ]},
    {"smiles": "C[C@@]12Cc3[nH]nc(C(=O)Nc4cnn(C5CCN(CC6CCN(c7ccc(N8CCC(=O)NC8=O)cc7)CC6)CC5)c4)c3C[C@@H]1C2(F)F", "note": "[Compound 207, (4aS,5aR)-N-(1-(1-((1-(4-(2,4-dioxotetrahydropyrimidin-1(2H)-yl)phenyl)piperidin-4-yl)methyl)piperidin-4-yl)-1H-pyrazol-4-yl)-5,5-difluoro-5a-methyl-1,4,4a,5,5a,6-hexahydrocyclopropa[f]indazole-3-carboxamide]", "values": [
      {"measurement": "DC50", "result": 0.49, "unit": "nM"},
      {"measurement": "Dmax", "result": 65, "unit": "%"}
    ]},
    {"smiles": "C[C@@H]1CN(C(=O)c2ccc3cc(-c4n[nH]c5c4C[C@@H]4C(F)(F)[C@]4(C)C5)[nH]c3c2)CCN1CC1CCN(c2ccc(C3CCC(=O)NC3=O)cc2)CC1", "note": "(some centres unmarked) [Compound 159]", "values": [
      {"measurement": "Dmax", "result": 84, "unit": "%"}
    ]},
    {"smiles": "Cc1cc(N2CCC(CN3CCN(C(=O)c4ccc5cc(-c6n[nH]c7c6CCC(C)(C)C7)[nH]c5c4)CC3)CC2)ccc1C1CCC(=O)NC1=O", "note": "(centres unmarked) [Compound 182]", "values": [
      {"measurement": "Dmax", "result": 70, "unit": "%"}
    ]},
    {"smiles": "C[C@@]12Cc3[nH]nc(C(=O)Nc4cnn([C@H]5CCN(C[C@H]6CCN(c7ccc(C8CCC(=O)NC8=O)cc7)C6)C[C@@H]5F)c4)c3C[C@@H]1C2(F)F", "note": "(stereo partly drawn) [Compound 98, (4aS,5aR)-N-(1-((3S,4S)-1-(((3R)-1-(4-(2,6-dioxopiperidin-3-yl)phenyl)pyrrolidin-3-yl)methyl)-3-fluoropiperidin-4-yl)-1H-pyrazol-4-yl)-5,5-difluoro-5a-methyl-1,4,4a,5,5a,6-hexahydrocyclopropa[f]indazole-3-carboxamide]", "values": [
      {"measurement": "DC50", "result": 0.7, "unit": "nM"},
      {"measurement": "Dmax", "result": 89, "unit": "%"}
    ]},
    {"smiles": "C[C@@H]1CN(C(=O)c2ccc3cc(-c4n[nH]c5c4C[C@@H]4C(F)(F)[C@]4(C)C5)[nH]c3c2)C[C@H](C)N1CC1CCN(c2ccc(C3CCC(=O)NC3=O)cc2)CC1", "note": "(some centres unmarked) [Compound 158]", "values": [
      {"measurement": "Dmax", "result": 88, "unit": "%"}
    ]},
    {"smiles": "C[C@@]12Cc3[nH]nc(C(=O)Nc4cnn([C@@H]5CCN(C[C@@H]6CCN(c7ccc(C8CCC(=O)NC8=O)cc7)C6)C[C@H]5F)c4)c3C[C@@H]1C2(F)F", "note": "(stereo partly drawn) [Compound 101, (4aS,5aR)-N-(1-((3R,4R)-1-(((3S)-1-(4-(2,6-dioxopiperidin-3-yl)phenyl)pyrrolidin-3-yl)methyl)-3-fluoropiperidin-4-yl)-1H-pyrazol-4-yl)-5,5-difluoro-5a-methyl-1,4,4a,5,5a,6-hexahydrocyclopropa[f]indazole-3-carboxamide]", "values": [
      {"measurement": "DC50", "result": 1.1, "unit": "nM"},
      {"measurement": "Dmax", "result": 87, "unit": "%"}
    ]},
    {"smiles": "C[C@@]12Cc3[nH]nc(C(=O)Nc4cnn(C5CCN(C(=O)[C@H]6CC[C@H](Cn7ncc8cc(C9CCC(=O)NC9=O)ccc87)CC6)CC5)c4)c3C[C@@H]1C2(F)F", "note": "(mixture of isomers) [Compound 164]", "values": [
      {"measurement": "Dmax", "result": 86, "unit": "%"}
    ]},
    {"smiles": "C[C@@]12Cc3[nH]nc(C(=O)Nc4cnn(C5CN(C(=O)C6CN(c7ccc(C8CCC(=O)NC8=O)cn7)C6)C5)c4)c3C[C@@H]1C2(F)F", "note": "(stereo partly drawn) [Compound 55, (4aS,5aR)-N-(1-(1-(1-(5-(2,6-dioxopiperidin-3-yl)pyridin-2-yl)azetidine-3-carbonyl)azetidin-3-yl)-1H-pyrazol-4-yl)-5,5-difluoro-5a-methyl-1,4,4a,5,5a,6-hexahydrocyclopropa[f]indazole-3-carboxamide]", "values": [
      {"measurement": "DC50", "result": 1.8, "unit": "nM"}
    ]},
    {"smiles": "CN(c1ccc(C2CCC(=O)NC2=O)cn1)C1CCN(CC2CCN(C(=O)c3ccc4cc(-c5n[nH]c6c5CCC(C)(C)C6)[nH]c4c3)CC2)CC1", "note": "(centres unmarked) [Compound 62, 3-(6-((1-((1-(2-(6,6-dimethyl-4,5,6,7-tetrahydro-1H-indazol-3-yl)-1H-indole-6-carbonyl)piperidin-4-yl)methyl)piperidin-4-yl)(methyl)amino)pyridin-3-yl)piperidine-2,6-dione]", "values": [
      {"measurement": "DC50", "result": 0.002, "unit": "nM"},
      {"measurement": "Dmax", "result": 72, "unit": "%"}
    ]},
    {"smiles": "CC1(C)CCc2c(-c3cc4ccc(C(=O)N5CCN(CC6CCN(c7ncc(C8CCC(=O)NC8=O)cn7)CC6)CC5)cc4[nH]3)n[nH]c2C1", "note": "(centres unmarked) [Compound 187]", "values": [
      {"measurement": "Dmax", "result": 70, "unit": "%"}
    ]},
    {"smiles": "C[C@@]12Cc3[nH]nc(C(=O)Nc4cnn(C5CCN(CC6CCN(c7ccc(C8CCC(=O)NC8=O)cn7)CC6)CC5)c4)c3C[C@@H]1C2(F)F", "note": "(mixture of isomers) [Compound 114, (4aS,5aR)-N-(1-{1-[(1-{5-[(3RS)-2,6-dioxopiperidin-3-yl]pyridin-2-yl}piperidin-4-yl)methyl]piperidin-4-yl}-1H-pyrazol-4-yl)-5,5-difluoro-5a-methyl-1H,4H,4aH,5H,5aH,6H-cyclopropa[f]indazole-3-carboxamide]", "values": [
      {"measurement": "DC50", "result": 0.002, "unit": "nM"},
      {"measurement": "Dmax", "result": 87, "unit": "%"}
    ]}
  ]
}
